In patent US20240109900A1, “AZABICYCLIC SHP2 INHIBITORS” (IRBM S.P.A., priority 2021, published 2024):
Where two headings read alike, the source gives them in different places.

Experiments:
[1] = test system: ERK phosphorylation in KYSE-520 cells; test: Phospho-ERK cellular assay; type: cell-based; settings: Homo sapiens, KYSE-520 cells, 2 h at 37° C., phospho-ERK1/2 (Thr202/Tyr204) TR-FRET, read-out: PERK IC50
Outline: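 TR-FRET read-out of ERK1/2 Thr202/Tyr204 phosphorylation was taken after overnight antibody incubation at room temperature. Before that, KYSE-520 cells were treated 2 h at 37 °C with compound dilutions and lysed 30 min. Percent inhibition relative to vehicle and cell-free wells was fitted four-parametrically to give IC50.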

[2] = target: SHP-2 enzyme (Met1-Leu525) (Homo sapiens (Human), UniProt Q06124); test: SHP2 inhibition enzymatic assay; type: biochemical; settings: read-out: SHP2wt-IC50
Outline: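 SHP-2 (Met1-Leu525), 0.5 nM, activated with 500 nM IRS1 bis-phosphopeptide, preincubated 30 min with compounds in HEPES pH 7.2 buffer with 5 mM DTT. 75 μM DiFMUP added for 30 min at room temperature, stopped with bpV; fluorescence read. IC50 from four-parameter logistic fit of % inhibition.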

[3] = 0.5 nM SHP-2 activated by 500 nM IRS1 peptide, 75 μM DiFMUP substrate

Sequence of SHP-2 enzyme (Met1-Leu525) (Q06124 1-525): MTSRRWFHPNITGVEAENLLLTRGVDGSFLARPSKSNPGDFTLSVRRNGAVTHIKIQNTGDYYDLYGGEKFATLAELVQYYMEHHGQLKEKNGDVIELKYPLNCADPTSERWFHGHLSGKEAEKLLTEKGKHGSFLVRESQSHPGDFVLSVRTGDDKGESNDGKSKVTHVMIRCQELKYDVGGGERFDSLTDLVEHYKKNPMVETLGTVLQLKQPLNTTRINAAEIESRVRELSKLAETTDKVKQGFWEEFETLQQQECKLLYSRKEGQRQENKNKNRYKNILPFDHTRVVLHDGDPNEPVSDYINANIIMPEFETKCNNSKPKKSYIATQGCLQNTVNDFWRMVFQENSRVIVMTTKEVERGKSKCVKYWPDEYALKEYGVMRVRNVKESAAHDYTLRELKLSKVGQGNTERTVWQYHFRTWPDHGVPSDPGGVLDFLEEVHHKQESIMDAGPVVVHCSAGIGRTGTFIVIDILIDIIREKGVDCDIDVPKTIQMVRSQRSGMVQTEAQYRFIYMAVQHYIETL

Cc1cc([C@@]2(CN)[C@@H]3CCN(c4cnc5c(-c6ccnc7cc(F)ccc67)n[nH]c5n4)C[C@@H]32)no1 [Example 45, ((1S,6R,7S)-3-(3-(7-fluoroquinolin-4-yl)-1H-pyrazolo[3,4-b]pyrazin-6-yl)-7-(5-methylisoxazol-3-yl)-3-azabicyclo[4.1.0]heptan-7-yl)methanamine]
IC50 ([1]; KYSE-520, 2 h): < 1 µM | IC50 [2, 3]: < 0.5 µM

Cc1cc([C@@]2(CN)[C@@H]3CCN(c4cnc5c(-c6ccc7nn(C)cc7c6Cl)n[nH]c5n4)C[C@@H]32)no1 [Example 46, ((1S,6R,7S)-3-(3-(4-chloro-2-methyl-2H-indazol-5-yl)-1H-pyrazolo[3,4-b]pyrazin-6-yl)-7-(5-methylisoxazol-3-yl)-3-azabicyclo[4.1.0]heptan-7-yl)methanamine]
IC50 ([1]; KYSE-520, 2 h): < 1 µM | IC50 [2, 3]: < 0.5 µM

COCc1cc(C2(CN)C3CCN(c4cnc5c(-c6ccc7nn(C)cc7c6Cl)n[nH]c5n4)CC32)no1 (stereo not drawn) [Example 47, (3-(3-(4-chloro-2-methyl-2H-indazol-5-yl)-1H-pyrazolo[3,4-b]pyrazin-6-yl)-7-(5-(methoxymethyl)isoxazol-3-yl)-3-azabicyclo[4.1.0]heptan-7-yl)methanamine]
IC50 ([1]; KYSE-520, 2 h): < 1 µM | IC50 [2, 3]: < 0.5 µM

Cn1cc2c(Cl)c(-c3n[nH]c4nc(N5CCC6C(C5)C6(CN)c5cc(C6CC6)on5)cnc34)ccc2n1 (stereo not drawn) [Example 48, (3-(3-(4-chloro-2-methyl-2H-indazol-5-yl)-1H-pyrazolo[3,4-b]pyrazin-6-yl)-7-(5-cyclopropylisoxazol-3-yl)-3-azabicyclo[4.1.0]heptan-7-yl)methanamine]
IC50 ([1]; KYSE-520, 2 h): < 1 µM | IC50 [2, 3]: < 0.5 µM

Cn1cc2c(Cl)c(-c3n[nH]c4nc(N5CCC6C(C5)C6(CN)c5ncccc5F)cnc34)ccc2n1 (stereo not drawn) [Example 49, (3-(3-(4-chloro-2-methyl-2H-indazol-5-yl)-1H-pyrazolo[3,4-b]pyrazin-6-yl)-7-(3-fluoropyridin-2-yl)-3-azabicyclo[4.1.0]heptan-7-yl)methanamine]
IC50 ([1]; KYSE-520, 2 h): < 1 µM | IC50 [2, 3]: < 0.5 µM

Cn1cc2c(Cl)c(-c3n[nH]c4nc(N5CCC6C(C5)C6(CN)c5ccc(F)cn5)cnc34)ccc2n1 (stereo not drawn) [Example 50, (3-(3-(4-chloro-2-methyl-2H-indazol-5-yl)-1H-pyrazolo[3,4-b]pyrazin-6-yl)-7-(5-fluoropyridin-2-yl)-3-azabicyclo[4.1.0]heptan-7-yl)methanamine]
IC50 ([1]; KYSE-520, 2 h): < 1 µM | IC50 [2, 3]: < 0.5 µM

Cc1cc([C@@]2(CN)[C@@H]3CCN(c4cnc5c(-c6cccc7c6C(F)(F)C(=O)N7C)n[nH]c5n4)C[C@@H]32)no1 [Example 51, 4-(6-((1S,6R,7S)-7-(aminomethyl)-7-(5-methylisoxazol-3-yl)-3-azabicyclo[4.1.0]heptan-3-yl)-1H-pyrazolo[3,4-b]pyrazin-3-yl)-3,3-difluoro-1-methylindolin-2-one]
IC50 ([1]; KYSE-520, 2 h): < 1 µM | IC50 [2, 3]: < 0.5 µM

Cc1conc1C1(CN)C2CCN(c3cnc4c(-c5ccc6onc(C)c6c5)n[nH]c4n3)CC21 (stereo not drawn) [Example 52, (3-(3-(3-methylbenzo[d]isoxazol-5-yl)-1H-pyrazolo[3,4-b]pyrazin-6-yl)-7-(4-methylisoxazol-3-yl)-3-azabicyclo[4.1.0]heptan-7-yl)methanamine]
IC50 ([1]; KYSE-520, 2 h): < 1 µM | IC50 [2, 3]: < 0.5 µM

Cc1cc(C2(CN)C3CCN(c4cnc5c(Sc6ccnc(N)c6Cl)n[nH]c5n4)CC32)no1 (stereo not drawn) [Example 53, 4-((6-(7-(aminomethyl)-7-(5-methylisoxazol-3-yl)-3-azabicyclo[4.1.0]heptan-3-yl)-1H-pyrazolo[3,4-b]pyrazin-3-yl)thio)-3-chloropyridin-2-amine]
IC50 ([1]; KYSE-520, 2 h): < 1 µM | IC50 [2, 3]: < 0.5 µM

Cc1cc(C2(CN)C3CCN(c4cnc5c(Sc6ccnc7ccsc67)n[nH]c5n4)CC32)no1 (stereo not drawn) [Example 54, (7-(5-methylisoxazol-3-yl)-3-(3-(thieno[3,2-b]pyridin-7-ylthio)-1H-pyrazolo[3,4-b]pyrazin-6-yl)-3-azabicyclo[4.1.0]heptan-7-yl)methanamine]
IC50 ([1]; KYSE-520, 2 h): < 1 µM | IC50 [2, 3]: < 0.5 µM

NCC1(c2cccc(F)c2)C2CCN(c3nc4[nH]nc(-c5cccc(Cl)c5Cl)c4nc3CO)CC21 (stereo not drawn) [Example 55, (6-(7-(aminomethyl)-7-(3-fluorophenyl)-3-azabicyclo[4.1.0]heptan-3-yl)-3-(2,3-dichlorophenyl)-1H-pyrazolo[3,4-b]pyrazin-5-yl)methanol]
IC50 ([1]; KYSE-520, 2 h): < 1 µM | IC50 [2, 3]: < 0.5 µM

NCC1(c2cccc(F)c2)C2CCN(c3nc4[nH]nc(-c5ccccc5)c4nc3CO)CC21 (stereo not drawn) [Example 56, (6-(7-(aminomethyl)-7-(3-fluorophenyl)-3-azabicyclo[4.1.0]heptan-3-yl)-3-phenyl-1H-pyrazolo[3,4-b]pyrazin-5-yl)methanol]
IC50 ([1]; KYSE-520, 2 h): < 1 µM | IC50 [2, 3]: < 0.5 µM

Cc1cc(C2(CN)C3CCN(c4nc5[nH]nc(Sc6ccnc(N)c6Cl)c5nc4CO)CC32)no1 (stereo not drawn) [Example 57, (3-((2-amino-3-chloropyridin-4-yl)thio)-6-(7-(aminomethyl)-7-(5-methylisoxazol-3-yl)-3-azabicyclo[4.1.0]heptan-3-yl)-1H-pyrazolo[3,4-b]pyrazin-5-yl)methanol]
IC50 ([1]; KYSE-520, 2 h): 1 to 5 µM | IC50 [2, 3]: < 0.5 µM

Cc1cc(C2(CN)C3CCN(c4nc5[nH]nc(-c6ccnc(N)c6Cl)c5nc4CO)CC32)no1 (stereo not drawn) [Example 58, (3-(2-amino-3-chloropyridin-4-yl)-6-(7-(aminomethyl)-7-(5-methylisoxazol-3-yl)-3-azabicyclo[4.1.0]heptan-3-yl)-1H-pyrazolo[3,4-b]pyrazin-5-yl)methanol]
IC50 ([1]; KYSE-520, 2 h): > 5 µM | IC50 [2, 3]: < 0.5 µM

Cc1cc(C2(CN)C3CCN(c4cnc5c(N6CCCc7ncccc76)n[nH]c5n4)CC32)no1 (stereo not drawn) [Example 60, (3-(3-(3,4-dihydro-1,5-naphthyridin-1(2H)-yl)-1H-pyrazolo[3,4-b]pyrazin-6-yl)-7-(5-methylisoxazol-3-yl)-3-azabicyclo[4.1.0]heptan-7-yl)methanamine]
IC50 ([1]; KYSE-520, 2 h): < 1 µM | IC50 [2, 3]: < 0.5 µM

Cn1cc2c(Cl)c(-c3n[nH]c4nc(N5CCC6C(C5)C6(CN)c5cc(CO)on5)cnc34)ccc2n1 (stereo not drawn) [Example 61, (3-(7-(aminomethyl)-3-(3-(4-chloro-2-methyl-2H-indazol-5-yl)-1H-pyrazolo[3,4-b]pyrazin-6-yl)-3-azabicyclo[4.1.0]heptan-7-yl)isoxazol-5-yl)methanol]
IC50 ([1]; KYSE-520, 2 h): < 1 µM | IC50 [2, 3]: < 0.5 µM

Cc1cc(C2(CN)C3CCN(c4nc5[nH]nc(-c6ccc7nn(C)cc7c6Cl)c5c(=O)n4C)CC32)no1 (stereo not drawn) [Example 62, 6-(7-(aminomethyl)-7-(5-methylisoxazol-3-yl)-3-azabicyclo[4.1.0]heptan-3-yl)-3-(4-chloro-2-methyl-2H-indazol-5-yl)-5-methyl-1,5-dihydro-4H-pyrazolo[3,4-d]pyrimidin-4-one]
IC50 ([1]; KYSE-520, 2 h): 1 to 5 µM | IC50 [2, 3]: < 0.5 µM

NCC1(c2ccccc2)C2CCN(c3nc4nc(Sc5cccnc5C(F)(F)F)cnc4[nH]3)CC21 (stereo not drawn) [Example 63, (7-phenyl-3-(5-((2-(trifluoromethyl)pyridin-3-yl)thio)-1H-imidazo[4,5-b]pyrazin-2-yl)-3-azabicyclo[4.1.0]heptan-7-yl)methanamine]
IC50 [1]: 1 to 5 µM | IC50 [2]: < 0.5 µM

NCC1(c2ccsc2)C2CCN(c3nc4nc(Sc5cccnc5C(F)(F)F)cnc4[nH]3)CC21 (stereo not drawn) [Example 64, (7-(thiophen-3-yl)-3-(5-((2-(trifluoromethyl)pyridin-3-yl)thio)-1H-imidazo[4,5-b]pyrazin-2-yl)-3-azabicyclo[4.1.0]heptan-7-yl)methanamine]
IC50 ([1]; KYSE-520, 2 h): 1 to 5 µM | IC50 [2, 3]: < 0.5 µM

NCC1(c2ccccn2)C2CCN(c3nc4nc(Sc5cccnc5C(F)(F)F)cnc4[nH]3)CC21 (stereo not drawn) [Example 65, (7-(pyridin-2-yl)-3-(5-((2-(trifluoromethyl)pyridin-3-yl)thio)-1H-imidazo[4,5-b]pyrazin-2-yl)-3-azabicyclo[4.1.0]heptan-7-yl)methanamine]
IC50 ([1]; KYSE-520, 2 h): 1 to 5 µM | IC50 [2, 3]: < 0.5 µM

NCC1(c2ncccn2)C2CCN(c3nc4nc(Sc5cccnc5C(F)(F)F)cnc4[nH]3)CC21 (stereo not drawn) [Example 66, (7-(pyrimidin-2-yl)-3-(5-((2-(trifluoromethyl)pyridin-3-yl)thio)-1H-imidazo[4,5-b]pyrazin-2-yl)-3-azabicyclo[4.1.0]heptan-7-yl)methanamine]
IC50 ([1]; KYSE-520, 2 h): < 1 µM | IC50 [2, 3]: < 0.5 µM

Cc1csc(C2(CN)C3CCN(c4nc5nc(Sc6cccnc6C(F)(F)F)cnc5[nH]4)CC32)n1 (stereo not drawn) [Example 67, (7-(4-methylthiazol-2-yl)-3-(5-((2-(trifluoromethyl)pyridin-3-yl)thio)-1H-imidazo[4,5-b]pyrazin-2-yl)-3-azabicyclo[4.1.0]heptan-7-yl)methanamine]
IC50 ([1]; KYSE-520, 2 h): < 1 µM | IC50 [2, 3]: < 0.5 µM

NCC1C2CCN(c3nc4nc(Sc5cccnc5C(F)(F)F)cnc4[nH]3)CC12 (stereo not drawn) [Example 68, (3-(5-((2-(trifluoromethyl)pyridin-3-yl)thio)-1H-imidazo[4,5-b]pyrazin-2-yl)-3-azabicyclo[4.1.0]heptan-7-yl)methanamine]
IC50 [1]: > 5 µM | IC50 [2]: < 0.5 µM

NCC1(c2ccccc2)C2CCN(c3nc4nc(Sc5ccnc(N)c5Cl)cnc4[nH]3)CC21 (stereo not drawn) [Example 69, 4-((2-(7-(aminomethyl)-7-phenyl-3-azabicyclo[4.1.0]heptan-3-yl)-1H-imidazo[4,5-b]pyrazin-5-yl)thio)-3-chloropyridin-2-amine]
IC50 [1]: 1 to 5 µM | IC50 [2]: < 0.5 µM
